What was measured:
[1] = system: wild type N2 C. elegans; assay: EPG recording of pharyngeal pumping in microfluidic EPG array, wild type worms; assay type: in vivo, Caenorhabditis elegans
Description: (§1) C. elegans strains were grown on Nematode Growth Medium (NGM) agar plates seeded with the OP50 strain of E. coli. All strains were obtained from the Caenorhabditis Genetics Center (CGC; Minneapolis, Minn.). Wild-type worms were Bristol N2 and Ivermectin (IVM) resistant mutants were DA1316 avr-14(ad1302); avr-15(ad1051); glc-1(pk54). Worms were age synchronized by allowing gravid adults to lay eggs on seeded NGM plates for approximately 6 hr. The adults were then removed and embryos allowed to develop to adulthood at room temperature.
All experiments utilized M9 buffer (recipe available on the World Wide Web at 130.15.90.245/wormlab_recipe_book.htm#Commonlab; containing KH2PO4, NaHPO4, NaCl and MgSO4) to which serotonin (5HT) was added to stimulate pharyngeal pumping (Raizen and Avery, Neuron 1994 March; 12(3):483-95). Stocks of serotonin creatine sulfate monohydrate (Sigma H7752; St. Louis, Mo.) were prepared in M9 buffer at 40 mM and held in small aliquots at −20° C. until use. Each day of an experiment, a fresh aliquot was thawed and diluted to 10 mM 5HT in M9 buffer. This “M9-5HT” buffer was the control medium to which drugs or other compounds were added. Stock solutions of ivermectin (10 mM; Sigma 8898) were made up in dimethyl sulfoxide (DMSO, Fisher D-136; Fair Lawn, N.J.) and held at −20° C. for no longer than 2 wk. On the day of an experiment, IVM was diluted to the final concentration in M9-5HT buffer containing 0.005% Fast Green (Fisher F-99) as a visual indicator of drug flow within the chip (see below). The dye-containing M9-5HT buffer was filtered (PALL Life Sciences 25 mm Acrodisc syringe filter with 0.2 μm HT Tuffryn Membrane; Port Washington, N.Y.) before drug or DMSO was added.
Young adult worms were transferred from growth plates into a glass well containing M9-5HT buffer and left to acclimate for 10 minutes. […]
(§2) EPGs were recorded by a pair of 4-channel AC differential amplifiers (A-M Systems model 1700, Carlsborg, Wash.) connected to electrodes inserted into the device. […]

[2] = system: ivermectin resistance mutant C. elegans avr-14(ad1302); avr-15(ad1051); glc-1(pk54); assay: EPG recording of pharyngeal pumping in microfluidic EPG array, ivermectin-resistant mutant worms; assay type: in vivo, Caenorhabditis elegans; settings: 10 μM ivermectin in M9-5HT buffer, ivermectin-resistant mutant (FIG. 5)
Description: as §1
All experiments utilized M9 buffer (recipe available on the World Wide Web at 130.15.90.245/wormlab_recipe_book.htm#Commonlab; containing KH2PO4, NaHPO4, NaCl and MgSO4) to which serotonin (5HT) was added to stimulate pharyngeal pumping (Raizen and Avery, Neuron 1994 March; 12(3):483-95). Stocks of serotonin creatine sulfate monohydrate (Sigma H7752; St. Louis, Mo.) were prepared in M9 buffer at 40 mM and held in small aliquots at −20° C. until use. Each day of an experiment, a fresh aliquot was thawed and diluted to 10 mM 5HT in M9 buffer. This “M9-5HT” buffer was the control medium to which drugs or other compounds were added. […]
as §2

Compound	inhibition of pharyngeal pumping (EPG) ([1]; 10 mM levamisole in M9-5HT buffer, within 10 minutes (FIG. 6B))	pharyngeal pumping after washout of drug (EPG) ([1]; after 10 mM levamisole, within 60 minutes of wash onset with control buffer (FIG. 6C))	size and frequency of EPG signal ([1]; 10 μM ivermectin in M9-5HT buffer, 10 minutes after treatment, all eight C. elegans (FIG. 4))	block of pharyngeal pumping (EPG) [2]
c1ccc([C@H]2CN3CCSC3=N2)cc1 [levamisole]	completely inhibited	returned to normal		
ivermectin			significantly reduced or even eliminated	failed to block

Source: patent US9723817B2 (priority 2011, dated 2017)
